Data as given in patent publication US20160280670A1, “NOVEL COMPOUNDS FOR REGENERATION OF TERMINALLY-DIFFERENTIATED CELLS AND TISSUES” (ACOUSIA THERAPEUTICS GMBH, priority 2013, published 2016).

Tested on: inner ear progenitor cells from the postnatal sensory organ of the mouse (differentiated sensory epithelial patches, "mini ears")
Assay: Screening assay: EdU proliferation in differentiated inner ear progenitor sphere patches ("mini ears")
Type: cell-based
Details: test item 5 μM for 96 h
Source text: A screening assay was employed according to an experimental protocol that enables the isolation of inner ear progenitor cells from the postnatal sensory organ of the mouse preparations in vitro. These isolated progenitors generate typical spheres that express a comprehensive set of marker genes that define the early developing sensory epithelium in the progenitor cell state. Under appropriate conditions these spheres can differentiate into epithelial patches that express marker genes that are characteristic of differentiating hair cells and supporting cells as found in the native organ of Corti. These differentiated sensory epithelial patches, tagged “mini ears”, can be generated in sufficient numbers for screening purposes in a low-throughput format. For an appropriate read-out, dedifferentiation was detected with three parameters: (i) labelling of Sox2 expression (Sox2=transcription factor SRY (sex determining region Y-box 2), (ii) an increase in the incorporation of EdU indication proliferation (EdU=thymidine analogue 5-Ethynyl2′-deoxyuridine), and (iii) labelling using the hair cell marker Myosin VIIA.
Compounds were screened at a standard concentration of 5 μM. […]
For ease of comparison the number of EdU positive cells was normalized to the DMSO only condition. Thus, the proliferation activity is expressed as “fold EdU positive cells”. […]

C[C@](N)(Cc1c[nH]c2ccccc12)c1nc(C(=O)NC2CCCCC2)co1.Cl [Compound 13, (S)-2-(2-amino-1-(1H-indol-3-yl)propan-2-yl)-N-cyclohexyloxazole-4-carboxamide hydrochloride]
Mean percentage of EdU positive cells (EdU for the last 5 hours, patches after 14 days differentiation): 3.59% | Fold EdU positive re DMSO (proliferation activity, "fold EdU positive cells") (number of EdU positive cells normalized to DMSO only condition, hydrochloride): 2.04 fold
